The record followed here is patent publication US10273235B2, “Compositions and methods for inhibiting β-lactamase” (LegoChem Biosciences, Inc., priority 2015, dated 2019).

Where a name gives a salt, the structure may show the parent alone.

For orientation: MIC means the smallest concentration in the dilution series that meets the test's criterion for growth inhibition. By IC50 is commonly meant the concentration needed to halve the response being measured. The term AUC(0-inf) denotes total exposure, with the tail of the curve extrapolated. Low readings indicate less exposure, high ones more exposure. One may read the Cmax as the maximum level reached in the sampled fluid or tissue. For orientation: Tmax means the time from dosing to the highest level. For orientation: clearance means a measure of how efficiently the substance is removed, as volume per time. A lower clearance goes with inefficient removal. In general, half-life refers to the time needed for the level to fall by half in the phase considered. A low value points to fast loss.

One series relates to K. pneumoniae 5576. The series can be described thus: BLI potentiation MIC, K. pneumoniae 5576 (SHV-11, CMY-2, DHA-1, TEM-1). The format is cell-based. Particulars: Klebsiella pneumoniae, 5576, 19 h, read-out: MIC of Ceftazidime alone, no BLI; incubation 19 h. Here is the method: (§1) MIC90 (μg/mL) is the lowest concentration of an antibiotic that will inhibit the visible growth of 90% of microorganisms after incubation as compared with a control group to which the antibiotic is not treated.
(§2) MIC values were measured by the broth microdilution method developed by the Clinical and Laboratory Standards Institute (CLSI) (see CLSI M07-A9, Methods for Dilution Antimicrobial Susceptibility Test for Bacteria that Grow Aerobically; Approved Standard-Ninth Edition (2012): CLSI, Villanova, Pa.). The in vitro antibacterial activity was measured with respect to the following 9 clinical isolates: P. aeruginosa (3 strains); K. pneumoniae (6 strains). The in vitro antibacterial activity of selected compounds was measured with respect to the following 15 clinical isolates: K. pneumoniae (15 strains).

A further series deals with K. pneumoniae 3784. The series can be described thus: BLI potentiation MIC, K. pneumoniae 3784 (SHV-11, SHV-12, DHA-1). The format is cell-based. Particulars: incubation 19 h; for MIC of Meropenem with BLI: BLI fixed 4 ug/ml. Here is the method:
as §1, §2

The subject of another series is K. pneumoniae 4006. Description: BLI potentiation MIC, K. pneumoniae 4006 (SHV-12, CTX-M-15, TEM-1, OXA-9). The note with it: Klebsiella pneumoniae, 4006, 19 h, read-out: MIC of Ceftazidime alone, no BLI; incubation 19 h. The format is cell-based. Here is the method:
as §1, §2

The next series has as its system K. pneumoniae ATCC700603. Description: BLI potentiation MIC, K. pneumoniae ATCC700603 (SHV-3). The note with it: Klebsiella pneumoniae, ATCC700603, 19 h, read-out: MIC of Ceftazidime alone, no BLI; incubation 19 h. The format is cell-based. How it is done:
as §1, §2

The test system of a further series is P. aeruginosa ATCC27853. The series can be described thus: BLI potentiation MIC (broth microdilution), P. aeruginosa ATCC27853 (PoxB, AmpC). The format is cell-based. Particulars: incubation 19 h; for MIC of Meropenem with BLI: BLI fixed 4 ug/ml. Here is the method: as §1, §2
In general terms: In broth dilution the organism is exposed to a series of concentrations in liquid medium.

A further series has as its system P. aeruginosa ARC3506. Description: BLI potentiation MIC, P. aeruginosa ARC3506 (VEB-1, OXA-10, OprD−, AmpC). The format is cell-based. The note with it: BLI fixed 4 ug/ml; incubation 19 h. How it is done:
as §1, §2

For another series, the system named is K. pneumoniae NDM-506. Description: BLI potentiation MIC, K. pneumoniae NDM-506. The format is cell-based. Particulars: BLI fixed 4 ug/ml; incubation 19 h. How it is done: as §1, §2
The test system of another series is P. aeruginosa ARC3514. The series can be described thus: BLI potentiation MIC, P. aeruginosa ARC3514 (KPC-2, OprD−, AmpC). The note with it: BLI fixed 4 ug/ml; incubation 19 h. The format is cell-based. How it is done:
as §1, §2

The next series deals with K. pneumoniae 4248. Description: BLI potentiation MIC, K. pneumoniae 4248 (SHV-11, CTX-M-15, TEM-1, OXA-1). The format is cell-based. The note with it: BLI fixed 4 ug/ml; incubation 19 h. Here is the method:
as §1, §2

The subject of the next series is E. coli TOPDXA048. Description: MIC of strain used for extraction of enzymes, E. coli TOPDXA048 (OXA-48, TEM-116, AmpC (NC_000913)). The format is cell-based.
A further series deals with E. coli K0519020. Description: MIC of strain used for extraction of enzymes, E. coli K0519020 (CTX-M-15, TEM-1, OXA-1, AmpC (NC_000913)). The format is cell-based. The note with it: BLI: 4 ug/mL.
The test system of another series is E. aerogenes K9911729. Description: MIC of strain used for extraction of enzymes, E. aerogenes K9911729 (CMY-10, TEM-1, SHV-12, AmpC (DQ478697)). The format is cell-based. Particulars: BLI: 4 ug/mL.
The subject of a further series is E. coli ECO200. Description: MIC of strain used for extraction of enzymes, E. coli ECO200 (NDM-1, TEM-1, CTX-M-15, EC (AmpC), OXA-2 type). The format is cell-based.
In series [1] the target is T1, CMY-10 β-lactamase (class C) (Klebsiella aerogenes, UniProt Q99QC1).
T1 construct: MICs of bacterial strains used for extraction of enzymes; endogenous in cells
T1 sequence (Q99QC1 24-382): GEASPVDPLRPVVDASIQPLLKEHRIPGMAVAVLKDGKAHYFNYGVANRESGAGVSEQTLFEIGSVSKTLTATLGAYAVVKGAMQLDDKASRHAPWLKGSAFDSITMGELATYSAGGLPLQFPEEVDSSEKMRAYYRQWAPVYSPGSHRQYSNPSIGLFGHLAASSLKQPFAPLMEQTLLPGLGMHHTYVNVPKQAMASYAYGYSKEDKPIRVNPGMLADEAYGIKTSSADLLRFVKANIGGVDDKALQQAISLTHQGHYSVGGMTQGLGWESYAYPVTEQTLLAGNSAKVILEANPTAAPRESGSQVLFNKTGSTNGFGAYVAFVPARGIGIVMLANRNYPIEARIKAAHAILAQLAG
The series can be described thus: Inhibitory activity against β-lactamases (nitrocefin), CMY-10. The format is biochemical. Here is the method:
More diluted stocks were prepared as necessary. Enzyme activity was determined by monitoring the change of absorbance at 492 nm using the characteristic molecular extinction coefficient (Δε492=17,400 M^−1 cm^−1) of nitrocefin by a Shimazu UV-1650PC spectrophotometer. The nitrocefin was purchased from OXOID. Kinetic measurements were run at 30° C. in 10 mM MES[2-(N-morpholino)ethanesulfonic acid]buffer (pH 6.8) or 10 mM MES[2-(N-morpholino)ethanesulfonic acid] buffer (pH 6.8), […] BSA and 50 mM sodium bicarbonate. Reactions were performed in 2.5 mL cuvettes with 100 μM nitrocefin and initiated by adding 1.5 nM to 2.5 nM enzyme. The first 180 s of each reaction was used to measure initial rates. Data were evaluated using Microsoft Excel. Concentration dependent inhibition of enzyme was measured using different concentrations of inhibitors resulting from two-fold dilution series. Reaction progress at every concentration of inhibitor was measured in triplicates. IC50 values were calculated using 4-parameter log fits using XL Fit curve fitting software (www.idbs.com) for Excel using the following equation:
[formula] where y is the remaining enzyme activity (in %) and x is the corresponding concentration. he fitted IC50 parameter is the relative IC50, and is defined as the concentration giving a response half way between the fitted top (B) and bottom (A) of the curve.

The subject of a further series is K. pneumoniae CL5761. Description: MIC of strain used for extraction of enzymes, K. pneumoniae CL5761 (KPC-3, TEM-216, SHV-5). Particulars: BLI: 4 ug/mL. The format is cell-based. Here is the method:
as §1, §2

A further series in a line: Mouse pharmacokinetics. The format is in vivo, ICR mouse. Particulars: IV, 50 mg/kg, plasma; for AUC(0-inf) / Cmax / Tmax / clearance / half-life / Vd: ICR; for Vd: read-out: Vss. Here is the method: The pharmacokinetics values were evaluated in a mouse model. The test compound (50 mg/kg) was injected into the tail vein of 8 week old ICR mouse, weighing approximately 26-30 g. […] Lab conditions were temperature of 22±3° C. and humidity of 50±20%.

Take `CC(C)(O/N=C(\C(=O)N[C@@H]1C(=O)N2C(C(=O)[O-])=C(C[n+]3ccccc3)CS[C@H]12)c1csc(N)n1)C(=O)O` [Ceftazidime]: the minimal inhibitory concentration (MIC) was over 64 µg/mL with K. pneumoniae 5576; over 64 µg/mL with K. pneumoniae 3784 (Klebsiella pneumoniae, 3784, 19 h, read-out: MIC of Ceftazidime alone, no BLI); over 64 µg/mL with K. pneumoniae 4006; 32 µg/mL with K. pneumoniae ATCC700603; 2 µg/mL in the series with P. aeruginosa ATCC27853 (Pseudomonas aeruginosa, ATCC27853, 19 h, read-out: MIC of Ceftazidime alone, no BLI).

In the case of `NCC1(C(N)=O)CC([C@@H]2CC[C@@H]3CN2C(=O)N3OS(=O)(=O)O)=NO1` (stereo partly drawn) [Example 14, [(2S,5R)-2-[5-(aminomethyl)-5-carbamoyl-4H-isoxazol-3-yl]-7-oxo-1,6-diazabicyclo[3.2.1]octan-6-yl] hydrogen sulfate], the “MIC of Meropenem with BLI” value is 0.25 µg/mL with K. pneumoniae 3784; 64 µg/mL in the series on P. aeruginosa ARC3506; over 64 µg/mL in the series on K. pneumoniae NDM-506; over 64 µg/mL in the series with P. aeruginosa ARC3514; 0.0625 µg/mL in the series with K. pneumoniae 4248; 2 µg/mL in the series with P. aeruginosa ATCC27853.

Take `NC(=O)[C@@H]1CC[C@@H]2CN1C(=O)N2OS(=O)(=O)O` [Avibactam]: the “MIC of Meropenem with BLI” value was 0.5 µg/mL with E. coli TOPDXA048 (BLI: 4 ug/mL); 0.25 µg/mL with E. coli K0519020; 0.5 µg/mL with E. aerogenes K9911729; over 64 µg/mL in the series on E. coli ECO200 (BLI: 4 ug/mL); 1 µg/mL in the series with K. pneumoniae CL5761. For the same molecule, the MIC in the series with E. coli TOPDXA048 (Escherichia coli, TOPDXA048, read-out: MIC of LCB10-0200 with BLI) was 0.25 µg/mL; in the series on E. coli K0519020 (Escherichia coli, K0519020, read-out: MIC of LCB10-0200 with BLI) it was 0.25 µg/mL; in the series with E. aerogenes K9911729 (Klebsiella aerogenes, K9911729, read-out: MIC of LCB10-0200 with BLI) it was 2 µg/mL; in the series on E. coli ECO200 (Escherichia coli, ECO200, read-out: MIC of LCB10-0200 with BLI) it was over 64 µg/mL; in the series on K. pneumoniae CL5761 (Klebsiella pneumoniae, CL5761, read-out: MIC of LCB10-0200 with BLI) it was 16 µg/mL. Further, the IC50 in series [1] was found to be 13 nM.

Turning to `NCC1(CN)CC([C@@H]2CC[C@@H]3CN2C(=O)N3OS(=O)(=O)O)=NO1` [Example 5, [(2S,5R)-2-[5,5-bis(aminomethyl)-4H-isoxazol-3-yl]-7-oxo-1,6-diazabicyclo[3.2.1]octan-6-yl] hydrogen sulfate], in the series “Mouse pharmacokinetics”, the AUC(0-inf) came out at 55300 ± 4160 ng·h/mL, the peak level (Cmax) was 103 ± 9.93 µg/mL, the Tmax turned out to be 4.8 min and the clearance was 15.2 mL/min/kg. Also, in the series “Mouse pharmacokinetics”, the half-life was 191 ± 93.6 min; the Vd was determined as 2.23 ± 0.61 L/kg; the AUCnorm was 1.11 ± 0.08 kg·h/L; the “Cmax, norm” value turned out to be 2.06 ± 0.20 kg/L.

Turning to `NC(=O)CN1CCC2(CC([C@@H]3CC[C@@H]4CN3C(=O)N4OS(=O)(=O)O)=NO2)C1` (stereo partly drawn) [Example 12, [(2S,5R)-2-[7-(2-amino-2-oxo-ethyl)-1-oxa-2,7-diazaspiro[4.4]non-2-en-3-yl]-7-oxo-1,6-diazabicyclo[3.2.1]octan-6-yl] hydrogen sulfate], the “MIC of Meropenem with BLI” value in the series on K. pneumoniae 3784 is 1 µg/mL; with P. aeruginosa ARC3506, 64 µg/mL; in the series with K. pneumoniae NDM-506 it was over 64 µg/mL; in the series on P. aeruginosa ARC3514, over 64 µg/mL; with K. pneumoniae 4248, 0.125 µg/mL; with P. aeruginosa ATCC27853, 2 µg/mL.

`NCC1CC([C@@H]2CC[C@@H]3CN2C(=O)N3OS(=O)(=O)O)=NO1` (stereo partly drawn) [Example 2, [(2S,5R)-2-[5-(aminomethyl)-4,5-dihydroisoxazol-3-yl]-7-oxo-1,6-diazabicyclo[3.2.1]octan-6-yl] hydrogen sulfate]: in “Mouse pharmacokinetics”, the AUC(0-inf) is 34500 ± 3610 ng·h/mL, the Cmax turned out to be 74.4 ± 3.44 µg/mL, the Tmax is 4.8 min and the clearance is 24.3 mL/min/kg. Besides, in “Mouse pharmacokinetics”, the half-life was 88.2 ± 9.6 min; the Vd came to 1.57 ± 0.12 L/kg; the AUCnorm worked out at 0.69 ± 0.07 kg·h/L; the “Cmax, norm” value turned out to be 1.49 ± 0.07 kg/L.

For the molecule `NCC1(CO)CC([C@@H]2CC[C@@H]3CN2C(=O)N3OS(=O)(=O)O)=NO1` (stereo partly drawn) [Example 13, [(2S,5R)-2-[5-(aminomethyl)-5-(hydroxymethyl)-4H-isoxazol-3-yl]-7-oxo-1,6-diazabicyclo[3.2.1]octan-6-yl] hydrogen sulfate], the “MIC of Meropenem with BLI” value is 0.25 µg/mL with K. pneumoniae 3784; 32 µg/mL with P. aeruginosa ARC3506; over 64 µg/mL in the series on K. pneumoniae NDM-506; over 64 µg/mL in the series on P. aeruginosa ARC3514; 0.0625 µg/mL in the series on K. pneumoniae 4248; 2 µg/mL with P. aeruginosa ATCC27853.
